{"source": "paper PMC4822341", "about": "(Cell Discovery, 2015)", "key": {"[1]": {"assay": "Insulin-tolerance test and plasma insulin level", "conditions": "7 days", "procedure": "DBA/1 mice (Taconic) were weighted just before the experiment. After 4 h fasting, mice were i.p. injected with 0.75 U kg^–1 of insulin (Huamlin R). Blood samples were taken from the tail at time 0 (before insulin injection), 15, 30, 45, 60, 90 and 120 min after injection. Plasma glucose levels were measured using an AlphaTrak glucose meter. All data were plotted as percent of glucose level at time 0. Endogenous insulin levels were measured using the Ultra Sensitive Mouse Insulin ELISA kit (Crystal Chem, Downers Groove, IL, USA)."}, "[2]": {"assay": "Bone density (μCT) and biomechanics testing of femurs", "type": "in vivo, DBA/1 mice", "conditions": "2 weeks; for cortical bone thickness of femurs: μCT", "experimental": "Femur bones were collected and scanned by μCT (Skyscan 1172 uCT) for quantification of trabecular and cortical bone parameters. The thresholds for μCT quantification of trabecular and cortical bone parameters were set at 80–100 and 100–110, respectively. μCT analyses of cortical bone parameters were performed on 100-μCT slices (1 mm total) from the middle shaft of femurs; trabecular parameters were assessed in 100-μCT slices (1 mm total) immediately below the distal growth plate of the femur. Following uCT scans, the femurs were individually tested on a TestResources 570 Force Transducer. Bones were thawed in PBS before being tested, to ensure no brittleness was due to freezing. […] Data points were collected at a frequency of 50 Hz and a deflection rate of 0.005 mm s^–1."}, "OVA-induced asthma": {"tested_on": "OVA-induced asthma", "assay": "OVA-induced mouse asthma model", "type": "in vivo, Balb/c mice", "conditions": "for % repression of AHR: ACH challenge 4 mg kg^-1", "experimental": "As described before, 7–9-week-old female Balb/c mice (Taconic) were sensitized on days 0, 7 and 14 by i.p. injection of 50 μg OVA/1 mg alum in a total of 200 μl saline. Control mice received an equal volume of alum only. Mice were lightly anesthetized by isoflurane inhalation and challenged with intranasal OVA (100 μg in 30 μl saline) or saline on days 21–23, and were i.p. injected with different steroids. Twenty-four hours after the last challenge and treatment, pulmonary resistance was measured in response to a range of concentrations of intravenous acetylcholine using the forced oscillation technique with the FlexiVent system (SCIREQ) as previously described. Serum samples were analyzed for OVA-specific IgE using an ELISA (BD Biosciences, clone R35-118). Total and differential cell counts were determined by hemocytometer and by light microscopic evaluation of more than 300 cells per slide as previously described. After lavage, lungs were inflated with 10% buffered formalin to 25 cm H2O and transferred to 10% buffered formalin. Sections (5 μm) were stained with H&E for semi-quantitative assessment of inflammation and PAS for evaluation of mucus production. To quantify inflammation, H&E-stained lung sections were de-identified for blinding and scored for peribronchial and perivascular inflammatory cell infiltration: grade 0, no infiltration; grade 1, <25% of examined area; grade 2, 25–50%; grade 3, 51–75%; and grade 4, >75%. To quantify goblet cell hyperplasia, PAS stained lung sections were de-identified for blinding and scored for the percentage of PAS positive cells among airway epithelial cells: grade 0: none; grade 1 <25% of airway epithelial cells; grade 2, 25–50%; grade 3, 51–75%; and grade 4, >75%."}, "[3]": {"assay": "Body weight (growth inhibition) of DBA/1 mice", "type": "in vivo", "conditions": "0.0625 mg kg^-1 daily, 2 weeks", "experimental": "Figure 5 Examination of side effects of VSGC12 and FF at the effective dose. (a) Body weight of DBA/1 mice treated with the indicated daily dose of steroids for 2 weeks. Mice body weight was measured at day 0, 7 and 14. (b) Insulin-tolerance test of mice treated with the indicated daily doses of steroids for 7 days. Glucose level was measured at day 7 at various time points before and after insulin injection. Data were plotted as percent of the glucose level of time 0. (c) Plasma insulin levels of mice treated with the indicated daily doses of steroid for 7 days. (d) Spleen size and weight for mice treated with the indicated daily doses of steroid for 2 weeks. (e) Cortical bone thickness of femurs of mice treated with the indicated daily doses of steroid for 2 weeks. (f) Bone stiffness of femurs of mice treated with the indicated daily doses of steroid for 2 weeks. Mouse strain: DBA/1. Each treatment n=5, error bars indicate s.e.m., *P<0.05; **P<0.01; ***P<0.001."}, "GR": {"target": "T1, GR (Homo sapiens, UniProt P04150)", "T1 construct": "expressed in transfected cells; host or cells: AD293", "T1 sequence (P04150 1-777)": "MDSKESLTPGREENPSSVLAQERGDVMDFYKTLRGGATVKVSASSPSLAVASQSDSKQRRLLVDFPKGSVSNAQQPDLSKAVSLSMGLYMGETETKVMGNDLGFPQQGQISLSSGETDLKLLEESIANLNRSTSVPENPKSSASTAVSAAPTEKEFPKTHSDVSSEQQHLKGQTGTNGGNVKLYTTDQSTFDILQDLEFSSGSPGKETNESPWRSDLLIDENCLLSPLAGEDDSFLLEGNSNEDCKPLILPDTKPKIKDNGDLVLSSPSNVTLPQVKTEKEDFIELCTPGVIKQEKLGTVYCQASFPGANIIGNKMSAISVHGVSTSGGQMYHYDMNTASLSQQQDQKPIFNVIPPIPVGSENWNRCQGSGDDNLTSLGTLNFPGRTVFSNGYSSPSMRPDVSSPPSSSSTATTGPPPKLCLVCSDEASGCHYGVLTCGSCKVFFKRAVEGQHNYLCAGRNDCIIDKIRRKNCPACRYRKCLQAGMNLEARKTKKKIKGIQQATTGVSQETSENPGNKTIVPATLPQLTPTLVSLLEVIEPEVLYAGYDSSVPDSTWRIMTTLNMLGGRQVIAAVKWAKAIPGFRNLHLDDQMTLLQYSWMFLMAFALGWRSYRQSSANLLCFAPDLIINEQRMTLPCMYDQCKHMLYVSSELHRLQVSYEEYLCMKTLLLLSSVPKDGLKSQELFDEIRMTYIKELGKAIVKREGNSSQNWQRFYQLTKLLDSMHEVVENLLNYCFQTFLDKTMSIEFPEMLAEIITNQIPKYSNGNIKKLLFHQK", "assay": "In vitro H3-Dex competition GR ligand-binding assay", "conditions": "H3-DEX 15 nM, GR cytosol", "text": "The in vitro GR binding assay is similar to the one described previously. […] Data were plotted as a standard competition curve by GraphPad Prism 5."}}, "note": "Several values for one entry are separate records, joined by “and”; a condition that tells them apart may be missing. Equal entries are not always repeated."}
{"smiles": "CON(C)C(=O)C1(OC(=O)c2ccco2)C(C)CC2C3CC(F)C4=Cc5c(cnn5-c5ccccc5)CC4(C)C3(F)C(O)CC21C", "note": "(stereo not shown) [VSGC12]", "values": [{"measurement": "insulin resistance in insulin-tolerance test", "setting": "[1]; 0.0625 mg kg^-1 daily", "result": "no longer induced insulin resistance"}, {"measurement": "insulin resistance in insulin-tolerance test", "setting": "[1]; 0.25 mg kg^-1 daily", "result": "still caused insulin resistance, the resistance was much less severe than for FF"}, {"measurement": "bone strength (stiffness) of femurs", "setting": "[2]; 0.0625 mg kg^-1 daily", "result": "no longer caused damage to bone strength"}, {"measurement": "cortical bone thickness of femurs", "setting": "[2]; 0.0625 mg kg^-1 daily", "result": "did not cause a significant decrease compared with vehicle treatment"}, {"measurement": "bone strength (stiffness) of femurs", "setting": "[2]; 0.25 mg kg^-1 daily", "result": "no longer caused damage to bone strength"}, {"measurement": "cortical bone thickness of femurs", "setting": "[2]; 0.25 mg kg^-1 daily", "result": "only caused a mild decrease"}, {"measurement": "% repression of total differentiated cells", "setting": "OVA-induced asthma; 0.0625 mg/kg", "result": 37, "unit": "%"}, {"measurement": "% repression of AHR", "setting": "OVA-induced asthma; 0.0625 mg/kg", "result": 50, "unit": "%"}, {"measurement": "% repression of total differentiated cells", "setting": "OVA-induced asthma; 0.125 mg/kg", "result": 60, "unit": "%"}, {"measurement": "histology score (hematoxylin and eosin and PAS staining)", "setting": "OVA-induced asthma; 0.25 mg kg^-1", "result": "much lower score than 0.25 mg kg^–1 FF in both hematoxylin and eosin and PAS staining"}, {"measurement": "% repression of total differentiated cells", "setting": "OVA-induced asthma; 0.25 mg/kg", "result": 88, "unit": "%"}, {"measurement": "% repression of AHR", "setting": "OVA-induced asthma; 0.25 mg/kg", "result": "> 95% and 95%"}, {"measurement": "infiltration of immune responsive cells into the lungs (total and differential cell count)", "setting": "OVA-induced asthma; 1 mg kg^-1 i.p.", "result": "strongly repressed the infiltration of immune responsive cells into the lungs"}, {"measurement": "repression of airway hyper-responsiveness (AHR)", "setting": "OVA-induced asthma; 1 mg kg^-1 i.p., Balb/c mice", "result": "robustly repressed AHR to the basal level"}, {"measurement": "histology score, PAS staining", "setting": "OVA-induced asthma; 1 mg kg^-1 i.p., grade 0-4", "result": 0.25}, {"measurement": "histology score, hematoxylin and eosin staining", "setting": "OVA-induced asthma; 1 mg kg^-1 i.p., grade 0-4", "result": "almost zero"}, {"measurement": "% repression of AHR", "setting": "OVA-induced asthma; 1 mg/kg, OVA+DMSO 0, saline 100", "result": 98, "unit": "%"}, {"measurement": "% repression of total differentiated cells", "setting": "OVA-induced asthma; 1 mg/kg, saline 100, OVA+DMSO 0", "result": 99, "unit": "%"}, {"measurement": "minimal dose to effectively repress AHR (minimal effective dose)", "setting": "OVA-induced asthma; AHR repression >50%, i.p.", "result": 0.0625, "unit": "mg kg^–1"}, {"measurement": "OVA-IgE levels", "setting": "OVA-induced asthma; lower doses (0.25, 0.125, 0.0625 mg kg^-1)", "result": "unexpectedly higher than the vehicle control"}, {"measurement": "growth inhibition (body weight)", "setting": "[3]", "result": "did not cause a significant growth inhibition"}, {"measurement": "IC50", "setting": "GR", "result": 6.1, "unit": "nM"}]}
